# Measured values taken from paper PMC12439166, “Dietary flavonoids form supramolecular assemblies, alter biochemistry, and enhance cell resilience” (Frontiers in Nutrition, 2025).
# Assays:
# Assay type in all cases: biochemical
# [1] = molecular target: T1, Lysine demethylase 4C (KDM4C) (Homo sapiens, UniProt Q9H3R0); assay: Enzyme activity assay (SAMDI-MS), KDM4C; details: 10 concentrations, 5 nM to 100 μM, compounds incubated with enzyme 30 min, result in words
# T1 sequence (Q9H3R0 1-1056): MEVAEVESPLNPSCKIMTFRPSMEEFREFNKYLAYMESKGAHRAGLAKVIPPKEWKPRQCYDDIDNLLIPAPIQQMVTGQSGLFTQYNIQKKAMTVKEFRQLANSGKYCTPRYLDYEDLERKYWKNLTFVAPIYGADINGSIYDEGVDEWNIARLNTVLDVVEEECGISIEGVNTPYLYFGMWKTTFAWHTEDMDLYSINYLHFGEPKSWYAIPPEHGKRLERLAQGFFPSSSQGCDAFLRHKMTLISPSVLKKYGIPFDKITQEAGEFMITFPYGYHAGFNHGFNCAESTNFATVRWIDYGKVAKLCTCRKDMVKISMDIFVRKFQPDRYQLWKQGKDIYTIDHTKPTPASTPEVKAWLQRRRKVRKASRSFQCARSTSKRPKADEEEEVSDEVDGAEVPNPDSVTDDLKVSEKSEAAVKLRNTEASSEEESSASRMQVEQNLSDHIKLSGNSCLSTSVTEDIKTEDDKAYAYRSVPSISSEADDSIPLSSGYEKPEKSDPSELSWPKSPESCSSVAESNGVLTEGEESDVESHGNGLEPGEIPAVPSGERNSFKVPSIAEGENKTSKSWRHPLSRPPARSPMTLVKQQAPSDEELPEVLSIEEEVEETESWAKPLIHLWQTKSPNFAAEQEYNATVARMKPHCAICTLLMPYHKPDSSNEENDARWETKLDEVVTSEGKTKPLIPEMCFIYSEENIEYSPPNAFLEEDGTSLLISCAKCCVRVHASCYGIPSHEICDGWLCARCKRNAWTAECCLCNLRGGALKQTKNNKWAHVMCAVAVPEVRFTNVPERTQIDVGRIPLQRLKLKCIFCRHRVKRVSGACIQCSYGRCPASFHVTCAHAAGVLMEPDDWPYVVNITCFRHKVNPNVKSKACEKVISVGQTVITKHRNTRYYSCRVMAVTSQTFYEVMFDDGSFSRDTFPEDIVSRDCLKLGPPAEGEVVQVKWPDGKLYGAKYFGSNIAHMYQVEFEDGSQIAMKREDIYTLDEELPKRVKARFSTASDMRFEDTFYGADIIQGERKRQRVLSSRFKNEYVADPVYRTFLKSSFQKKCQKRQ
# Method: (§1) Enzyme screens were performed by SAMDI Tech (contract research organization); enzyme assays were performed in a 20 μL volume in 384-well low-volume polypropylene microtiter plates (Greiner Bio-One) at room temperature. The enzymes [Arginase 1 (ARG1), Lysine demethylase 4C (KDM4C), MAP/microtubule affinity-regulating kinase 4 (MARK4), Histone-Lysine N-methyltransferase (NSD2), Tyrosine-protein phosphatase non-receptor type 1 (PTP1B), and Sirtuin-3 (SIRT3)] were incubated with compounds for 30 min prior to initiation of the reaction by the addition of substrate and cofactors (if required). Reactions were quenched by the addition of 0.5% formic acid (final) with subsequent neutralization using 1% sodium bicarbonate (final). For SAMDI MS analysis, 2 μL of each reaction was transferred using a 384-channel automated liquid handler to SAMDI biochip arrays functionalized with a neutravidin-presenting self-assembled monolayer. The preparation of SAMDI biochip arrays has been previously described ([41], [42], [49]). The SAMDI arrays were incubated for 1 h in a humidified chamber to allow specific immobilization of the biotinylated substrates and products; they were then purified by washing with ultrafiltered water (50 μL/spot) and dried with compressed air. A matrix comprising α-Cyano-4-hydroxycinnamic acid in 80% acetonitrile: 20% aqueous ammonium citrate (10 mg/mL final) was applied in an automated format by dispensing 50 nL to each spot in the array. SAMDI MS was performed using reflector positive mode on an AB Sciex TOF-TOF 5800 System (AB Sciex, Framingham, MA) with 400 shots/spot analyzed in a random raster sampling. For data analysis, the area under the curves (AUCs) for the product peak and substrate peak were calculated using the TOF/TOF Series Explorer (AB Sciex), and the amount of product formed was calculated using the equation AUC product / (AUC product + AUC Substrate). Negative controls were pre-quenched with 0.5% formic acid (final). Lysozyme assay was performed using the manufacturer’s instructions (Biovision Lysozyme inhibitor screening kit K237). Flavonoids were acquired from Sigma-Aldrich and Seleckchem.
# (§2) IC50 values of enzyme inhibition. Inhibition of the enzymes was measured at 10 concentration values in the range of 5 nM to 100 μM for each compound and enzyme, with two technical replicates; the percent inhibition values were determined by SAMDI software. Sigmoidal curves were fitted to the percent inhibition vs log10 (concentration) series, and IC50 values were determined at the crossing point of 50 % inhibition. Manual verification of the fits and the IC50 values was performed. The resulting IC50 values fell into the following categories: (a) within the assayed range of 5nM to 100μM (26 % of fits), (b) IC50 could be extrapolated, IC50 > 100μM (12 % of fits), or (c) fitting was not possible because all values were at baseline (62 % of fits). Compound efficacy ranking. First, for each IC50 value per compound and enzyme, a Z-score was calculated based on the log10 (IC50) value and that of the compounds that produced a successful readout for enzyme i , according to Equation 1: […]
# [2] = molecular target: T2, Tyrosine-protein phosphatase non-receptor type 1 (PTP1B) (Homo sapiens, UniProt P18031); assay: Enzyme activity assay (SAMDI-MS), PTP1B; details: 10 concentrations, 5 nM to 100 μM, compounds incubated with enzyme 30 min, result in words
# T2 sequence (P18031 1-435): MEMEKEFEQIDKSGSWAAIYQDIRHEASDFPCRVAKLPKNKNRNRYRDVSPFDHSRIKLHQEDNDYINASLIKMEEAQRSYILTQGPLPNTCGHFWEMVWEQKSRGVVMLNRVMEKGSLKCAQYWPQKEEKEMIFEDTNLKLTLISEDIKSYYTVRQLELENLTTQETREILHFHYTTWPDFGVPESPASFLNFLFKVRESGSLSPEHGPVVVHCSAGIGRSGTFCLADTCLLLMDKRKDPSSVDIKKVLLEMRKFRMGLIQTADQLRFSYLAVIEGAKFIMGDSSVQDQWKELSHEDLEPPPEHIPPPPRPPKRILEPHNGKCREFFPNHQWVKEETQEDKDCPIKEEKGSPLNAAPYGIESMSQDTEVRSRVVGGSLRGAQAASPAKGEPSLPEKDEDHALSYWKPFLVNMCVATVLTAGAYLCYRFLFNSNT
# Method: as §1
# IC50 values of enzyme inhibition. Inhibition of the enzymes was measured at 10 concentration values in the range of 5 nM to 100 μM for each compound and enzyme, with two technical replicates; the percent inhibition values were determined by SAMDI software. Sigmoidal curves were fitted to the percent inhibition vs log10 (concentration) series, and IC50 values were determined at the crossing point of 50 % inhibition. […] First, for each IC50 value per compound and enzyme, a Z-score was calculated based on the log10 (IC50) value and that of the compounds that produced a successful readout for enzyme i , according to Equation 1: […]
# [3] = molecular target: T3, Lysozyme (Gallus gallus, UniProt P00698); assay: Lysozyme assay (Biovision Lysozyme inhibitor screening kit K237); details: 10 concentrations, 5 nM to 100 μM, result in words
# T3 construct: purchased Biovision K237
# T3 sequence (P00698 19-147): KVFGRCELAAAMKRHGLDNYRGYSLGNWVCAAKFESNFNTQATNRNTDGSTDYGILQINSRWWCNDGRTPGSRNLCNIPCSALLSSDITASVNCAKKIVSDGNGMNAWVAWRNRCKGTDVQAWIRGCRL
# Method: as §1, §2
SMILES,"inhibition of enzyme activity, KDM4C [1]","inhibition of enzyme activity, KDM4C ([1]; listed as Quercetin)","inhibition of enzyme activity, KDM4C ([1]; listed as Quercitin)","inhibition of enzyme activity, PTP1B ([2]; listed as Quercetin)","inhibition of enzyme activity, PTP1B ([2]; listed as Quercitin)","inhibition of enzyme activity, Lysozyme [3]","inhibition of enzyme activity, Lysozyme ([3]; listed as Quercetin)","inhibition of enzyme activity, Lysozyme ([3]; listed as Quercitin)","inhibition of enzyme activity, PTP1B [2]"
O=c1c(O)c(-c2ccc(O)c(O)c2)oc2cc(O)cc(O)c12 [quercetin],blocked,inhibited,concentration-dependent inhibition,inhibited,concentration-dependent inhibition,blocked,inhibited,concentration-dependent inhibition,
C[C@@H]1O[C@@H](Oc2c(-c3ccc(O)c(O)c3)oc3cc(O)cc(O)c3c2=O)[C@H](O)[C@H](O)[C@H]1O [quercitrin],blocked,,,,,blocked,,,did not affect
O=c1c(O[C@@H]2O[C@H](CO)[C@@H](O)[C@H](O)[C@H]2O)c(-c2ccc(O)c(O)c2)oc2cc(O)cc(O)c12 [isoquercitrin],blocked,,,,,blocked,,,not
